Measured values as given in patent US7759373B2, “Large conductance calcium-activated K channel opener” (Mitsubishi Tanabe Pharma Corporation, priority 2001, dated 2010).

Columns and labels:
[1] = test system: isolated rabbit urinary bladder; test: Relaxation effect on potassium-induced contraction of isolated rabbit urinary bladder; assay type: cell-based; settings: Oryctolagus cuniculus; 50% relaxation concentration; high-K+ (30 mM) pre-contracted rabbit bladder strips; relaxation as percentage of the maximum produced by 0.1 mM papaverine; read-out: EC50 value range
Procedure: Relaxation effect on potassium-induced contraction of isolated rabbit urinary bladder
Urinary bladder was isolated from Male NZW rabbits (2.0-3.5 kg) and immersed in ice-cold Krebs-bicarbonate solution (in mM: 118 NaCl, 4.7 KCl, 1.2, 2.5 CaCl2, MgSO4, 1.2 KH2PO4, 11 glucose, 25 NaHCO3). The urinary bladder was cut into longitudinal strips (5 mm length, 3-4 mm width) after mucosal layer was removed. Preparations were mounted in organ baths containing 10 ml of Krebs solution maintained at 37° C. and gassed with 95% O2/5% CO2. Accordingly, preparations were stretched with an initial tension of 2.0±1.0 g, and changes in isometric tension were measured by force-displacement transducer. The preparations were pre-contracted by changing organ-bath solution into high-K^+ (30 mM) Krebs solution (in mM: 92.7 NaCl, 30 KCl, 1.2, 2.5 CaCl2, MgSO4, 1.2 KH2PO4, 11 glucose, 25 NaHCO3).
After stable tension was obtained, compounds were added into organ baths cumulatively (10^−8M-10^−4M). The effects of compounds were expressed as a percentage of the maximum relaxation produced by 0.1 mM papaverine. 50% relaxation concentration (EC50) was calculated and EC50 value range (μM) of the compounds of the present invention was shown in the following Table 64 with a rank of A, B or C. These ranges are as mentioned below. 3≧C≧1≧B≧0.5≧A

[2] = test system: rhythmic bladder contractions induced by substance P; test: Inhibitory effect on the rhythmic bladder contractions induced by substance P in anesthetized rats; assay type: in vivo, rat; settings: time during which frequency of rhythmic contraction was completely inhibited, 0.25 mg/kg of the compound, substance P infusion
Summary of the method: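 Value is duration (min) of complete inhibition of bladder contractions, ranked A/B/C at 20 and 10 min cut-offs. Intravenous dosing (0.5% Tween 80 saline) in female SD rats under urethane, bladder saline-filled and contractions maintained by substance P infusion, 0.33 μg/kg/min.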

Compound | EC50 [1] [nM] | 100% inhibition time range [2]
CCc1nc(-c2ccc(F)cc2)[nH]c1-c1cncs1 [Preparation example 86] | 500 to 1000 | B (A≧20>B≧10>C (minute))
C[S+]([O-])Cc1nc(-c2ccc(F)cc2)[nH]c1-c1ccsc1 (stereo not shown) [Preparation Example 181] | 500 to 1000 | B (A≧20>B≧10>C (minute))
CCCc1nc(-c2ccc(F)cc2)[nH]c1-c1cccc(F)c1 [Preparation example 99] | 500 to 1000 | B (A≧20>B≧10>C (minute))
O=C(O)Cc1nc(-c2ccc(F)cc2)oc1-c1ccc(Cl)c(F)c1 [Preparation Example 253] | 500 to 1000 | A (A≧20>B≧10>C (minute))
O=C([O-])Cc1nc(-c2ccc(F)cc2)oc1-c1ccc(Cl)s1.[Na+] [Preparation Example 152, 5-(5-chloro-thiophen-2-yl)-2-(4-fluorophenyl)oxazol-4-yl acetic acid sodium salt] | 1000 to 3000 | B (A≧20>B≧10>C (minute))
CCc1nc(-c2cccc(Cl)c2)[nH]c1-c1cccnc1 [Preparation example 13] | ≤ 500 | C (A≧20>B≧10>C (minute))
CCCc1nc(-c2cccc(F)c2)[nH]c1-c1ccccc1 [Preparation example 30] | 1000 to 3000 | B (A≧20>B≧10>C (minute))
O=C(O)Cc1nc(-c2ccc(Cl)cc2)oc1-c1ccc(Cl)s1 [Preparation Example 275] | ≤ 500 | A (A≧20>B≧10>C (minute))
CSc1ccc(-c2nc(CC(=O)O)c(-c3ccc(Cl)cc3)o2)cc1 [Preparation Example 455] | 1000 to 3000 | B (A≧20>B≧10>C (minute))
CN(C)c1[nH]c(-c2ccc(F)cc2)nc1-c1ccccc1.Cl [Preparation example 108, 5-dimethylamino-2-(4-fluorophenyl)-4-phenylimidazole hydrochloride] | 1000 to 3000 | B (A≧20>B≧10>C (minute))
FCCc1nc(-c2ccc(F)cc2)[nH]c1-c1ccccc1 [Preparation Example 182] | ≤ 500 | B (A≧20>B≧10>C (minute))
C[S+]([O-])Cc1nc(-c2cccc(F)c2)[nH]c1-c1ccccc1 (stereo not shown) [Preparation example 136] | 500 to 1000 | C (A≧20>B≧10>C (minute))
COc1ccc(-c2nc(CC(=O)O)c(-c3cccs3)o2)cc1F [Preparation Example 431] | 500 to 1000 | B (A≧20>B≧10>C (minute))
CSc1ncc(-c2nc(CC(=O)O)c(-c3ccc(Cl)c(F)c3)o2)cn1 [Preparation Example 462] | 500 to 1000 | C (A≧20>B≧10>C (minute))
CSc1ccc(-c2nc(CC(=O)O)c(-c3ccc(Cl)s3)o2)cc1 [Preparation Example 281] | ≤ 500 | C (A≧20>B≧10>C (minute))
COCc1ccc(-c2nc(CC(=O)O)c(-c3ccc(Cl)s3)o2)cn1 [Preparation Example 464] | 1000 to 3000 | C (A≧20>B≧10>C (minute))
CC(C)c1ccc(-c2nc(CC(=O)O)c(-c3ccc(Cl)s3)o2)cc1 [Preparation Example 273] | 1000 to 3000 | C (A≧20>B≧10>C (minute))
CCCc1nc(-c2ccc(F)cc2)[nH]c1-c1ccc(F)cc1 [Preparation example 87] | 1000 to 3000 | B (A≧20>B≧10>C (minute))
O=C([O-])Cc1oc(-c2ccc(F)cc2)nc1-c1ccc(Cl)s1.[Na+] [Preparation Example 487, 4-(5-chloro-thiophen-2-yl)-2-(4-fluorophenyl)oxazol-5-yl acetic acid sodium salt] | 500 to 1000 | C (A≧20>B≧10>C (minute))
CCOc1ccc(-c2nc(CC(=O)[O-])c(-c3ccc(Cl)s3)o2)cn1.[Na+] [Preparation Example 367, 2-(6-ethoxypyridin-3-yl)-5-(5-chlorothiophen-2-yl)oxazol-4-yl acetic acid sodium salt] | 500 to 1000 | A (A≧20>B≧10>C (minute))
O=C(O)Cc1oc(-c2ccc(F)cc2)nc1-c1ccc(Cl)cc1 [Preparation Example 511] | ≤ 500 | C (A≧20>B≧10>C (minute))
CN(C)c1ncc(-c2nc(CC(=O)O)c(-c3ccc(Cl)cc3)o2)cn1 [Preparation Example 473] | 500 to 1000 | A (A≧20>B≧10>C (minute))
Cn1c(-c2oc(-c3ccc(F)cc3)nc2CC(=O)O)cc2ccccc21 [Preparation Example 249] | 1000 to 3000 | B (A≧20>B≧10>C (minute))
O=C(O)Cc1nc(-c2ccc(F)cc2)oc1-c1ccc(F)cc1 [Preparation Example 235] | 500 to 1000 | B (A≧20>B≧10>C (minute))

More lines, main results first:

EC50 [1] [nM] | Compound | 100% inhibition time range [2]
1000 to 3000 | O=C(O)Cc1sc(-c2ccc(F)cc2)nc1-c1ccc(Cl)c(F)c1 [Preparation Example 584] | A (A≧20>B≧10>C (minute))
500 to 1000 | CN(C)c1ncc(-c2nc(-c3ccc(Cl)cc3)c(CC(=O)O)s2)cn1 [Preparation Example 601] | A (A≧20>B≧10>C (minute))
500 to 1000 | COc1ccc(-c2nc(-c3cccs3)c(CC(=O)O)s2)cc1 [Preparation Example 578] | B (A≧20>B≧10>C (minute))
≤ 500 | O=C(O)Cc1nc(-c2cc3c(s2)CCC3)oc1-c1ccc(Cl)s1 [Preparation Example 479] | C (A≧20>B≧10>C (minute))
1000 to 3000 | O=C(O)Cc1sc(-c2cc3ccccc3s2)nc1-c1ccc(Cl)cc1 [Preparation Example 574] | B (A≧20>B≧10>C (minute))
≤ 500 | COc1ccc(-c2nc(CC(=O)O)c(-c3ccc(Cl)s3)o2)cc1Cl [Preparation Example 280] | C (A≧20>B≧10>C (minute))
≤ 500 | Cc1ccc(-c2nc(CC(=O)O)c(-c3ccc(Cl)s3)o2)cn1 [Preparation Example 452] | B (A≧20>B≧10>C (minute))
≤ 500 | CN(C)c1ncc(-c2nc(-c3ccc(Cl)s3)c(CC(=O)O)s2)cn1 [Preparation Example 600] | A (A≧20>B≧10>C (minute))
500 to 1000 | O=C(O)Cc1nc(-c2cc3ccccc3o2)oc1-c1ccc(Cl)s1 [Preparation Example 435] | B (A≧20>B≧10>C (minute))
1000 to 3000 | O=C(O)Cc1oc(-c2cc3ccccc3s2)nc1-c1ccc(Cl)s1 [Preparation Example 503] | A (A≧20>B≧10>C (minute))
≤ 500 | Cc1cc(-c2nc(CC(=O)O)c(-c3ccc(Cl)s3)s2)sc1C [Preparation Example 612] | A (A≧20>B≧10>C (minute))
1000 to 3000 | CSc1ncc(-c2nc(CC(=O)O)c(-c3ccc(Cl)s3)o2)cn1 [Preparation Example 445] | A (A≧20>B≧10>C (minute))
1000 to 3000 | CN(C)c1ccc(-c2nc(-c3ccc(Cl)s3)c(CC(=O)O)o2)cn1 [Preparation Example 504] | C (A≧20>B≧10>C (minute))
500 to 1000 | Cc1cc(-c2nc(-c3ccc(Cl)s3)c(CC(=O)O)s2)sc1C [Preparation Example 587] | A (A≧20>B≧10>C (minute))
